The source of these data is patent US20070129434A1, “Analgesics and methods of use” (priority 2002, published 2007).

One series concerns the target T1, rat α3β4 nAChRs (Rattus norvegicus, UniProt P04757+P12392).
T1 construct: expressed in transfected cells
The experiment in a line: cell-based. The following applies: for IC50: inhibition of 86Rb+ efflux stimulated by 100 μM nicotine, KXα3β4R2 cells, mean ± standard error; for type of receptor blockade: nicotine concentration-response curves in presence of antagonist. In kind it is cell-based. The procedure: Cell Culture. The cell line KXα3β4R2 was established previously by stably cotransfecting human embryonic kidney-293 cells with the rat α3 and β4 nAChR subunits genes (Xiao et al., 1998). Cells were maintained in minimum essential medium supplemented with 10% fetal bovine serum, 100 units/ml penicillin G, […], and 0.7 mg/ml of geneticin (G418) at 37° C. with 5% CO2 in a humidified incubator.
^86Rb^+ Efflux Assay. Function of nAChRs expressed in the transfected cells was measured using a ^86Rb^+ efflux assay as described previously (Xiao et al., 1998). In brief, cells in the selection growth medium were plated into 24-well plates coated with poly(D-lysine). The plated cells were grown at 37° C. for 18 to 24 h to reach 70 to 95% confluence. The cells were then incubated in growth medium (0.5 ml/well) containing ^86Rb^+ (2 μCi/ml) for 4 h at 37° C. The loading mixture was then aspirated and the cells were washed three times with buffer (15 mM HEPES, 140 mM NaCl, 2 mM KCl, 1 mM MgSO4, 1.8 mM CaCl, 11 mM glucose, pH 7.4; 1 ml/well) for 30 s, 5 min, and 30 s, respectively. One milliliter of buffer, with or without compounds to be tested, was then added to each well. After incubation for 2 min, the assay buffer was collected for measurements of ^86Rb^+ released from the cells. Cells were then lysed by adding 1 ml of 100 mM NaOH to each well, and the lysate was collected for determination of the amount of ^86Rb^+ that was in the cells at the end of the efflux assay. Radioactivity of assay samples and lysates was measured by liquid scintillation counting. Total loading (cpm) was calculated as the sum of the assay sample and the lysate of each well. The amount of ^86Rb^+ efflux was expressed as a percentage of ^86Rb^+ loaded.
Experiments with antagonists were done in two different ways. […] EC50, Emax, and IC50, values were determined by nonlinear least-squares regression analyses (GraphPad, San Diego, Calif.).

In series [1] the target is T2, α3β4 receptor agonist recognition sites (Rattus norvegicus, UniProt P04757+P12392).
T2 construct: expressed in transfected cells
The experiment in a line: [3H]EB ligand binding in membrane homogenates from KXα3β4R2 cells. An excerpt:
Bound and free ligands were separated by vacuum filtration through Whatman GF/C filters treated with 0.5% polyethylenimine. […] Specific binding was defined as the difference between total binding and nonspecific binding.

The conditions of series [2]: cited from earlier work.
The test system of series [3] is glutamate stimulated catecholamine release. Type of series: cell-based, rat. The following applies: 1 mM glutamate for 2 min, hippocampus and striatum slices; for block of glutamate stimulated catecholamine release: 10 μM. The procedure:
The hippocampus and striatum are both important and well-studied anatomical areas of the brain. The hippocampus is associated with learning and memory functions while the striatus is linked to motor function. Slices were loaded with [^3H]norepinephrine or [^3H]dopamine and then exposed to 1 mM glutamate for 2 min in the absence or presence of MK-801, d-methadone or (+)-EDDP. The baseline release was measured in the absence of glutamate.

For series [4], the system named is morphine, methamphetamine, and nicotine self-administration. The following applies: rats, 5-30 mg/kg; cited from earlier work.
The next series relates to Swiss-Webster mice. Kind of series: Warm-water tail-withdrawal nociception assay. The note with it: either enantiomer, 40 μg intracerebrally. Type of series: in vivo. As to the method:
To confirm their suspicions that the compounds of the present invention, do in fact have an analgesic effect, the inventors experimented with mice. […] Each enantiomer of EDDP, in 40 μg doses, was administered intracerebrally to the mice. The animals were monitored for baseline sensitivity using the warm-water tail-withdrawal nociception assay and the latency to tail withdrawal was monitored as a measurement of analgesia. […] Thus, it is clear that the d-methadone metabolite EDDP has significant analgesic effect. Likewise, the metabolite EMDP and the structural analogs of both EDDP and EMDP are expected to do the same.

Setting [5] is: blocking nicotine-stimulated 86Rb+ efflux.

Several values for one entry are separate records, joined by “and”; a condition that tells them apart may be missing. Equal entries are not always repeated. Structures can show the parent of a compound that is named as a salt.

T1 sequence (P04757 26-499): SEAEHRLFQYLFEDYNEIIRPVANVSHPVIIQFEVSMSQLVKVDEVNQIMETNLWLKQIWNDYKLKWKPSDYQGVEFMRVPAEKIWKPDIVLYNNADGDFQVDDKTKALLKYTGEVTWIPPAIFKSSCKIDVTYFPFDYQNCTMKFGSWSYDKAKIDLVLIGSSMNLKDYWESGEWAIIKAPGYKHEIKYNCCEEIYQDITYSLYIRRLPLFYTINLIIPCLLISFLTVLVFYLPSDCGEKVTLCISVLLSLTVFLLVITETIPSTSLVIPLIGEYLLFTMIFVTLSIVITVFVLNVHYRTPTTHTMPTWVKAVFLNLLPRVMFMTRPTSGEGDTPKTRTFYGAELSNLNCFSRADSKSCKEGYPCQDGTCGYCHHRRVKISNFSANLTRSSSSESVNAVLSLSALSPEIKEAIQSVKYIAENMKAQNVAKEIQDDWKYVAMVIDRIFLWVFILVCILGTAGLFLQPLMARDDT
T1 sequence (P12392 21-495): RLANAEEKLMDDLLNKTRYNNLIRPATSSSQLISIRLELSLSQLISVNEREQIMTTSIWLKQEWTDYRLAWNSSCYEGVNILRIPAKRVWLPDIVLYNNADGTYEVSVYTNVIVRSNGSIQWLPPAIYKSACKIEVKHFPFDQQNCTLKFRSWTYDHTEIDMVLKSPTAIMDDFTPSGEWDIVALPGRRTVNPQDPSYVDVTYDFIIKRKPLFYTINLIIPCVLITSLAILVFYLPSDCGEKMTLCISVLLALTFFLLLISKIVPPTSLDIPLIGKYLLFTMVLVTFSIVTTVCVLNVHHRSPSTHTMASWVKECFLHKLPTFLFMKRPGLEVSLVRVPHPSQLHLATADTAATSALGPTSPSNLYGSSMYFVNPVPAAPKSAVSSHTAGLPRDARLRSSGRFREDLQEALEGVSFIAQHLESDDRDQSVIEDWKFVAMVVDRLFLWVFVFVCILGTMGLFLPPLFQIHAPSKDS
T2 sequence (P04757 26-499): as the sequence (P04757 26-499) above
T2 sequence (P12392 21-495): as the sequence (P12392 21-495) above

In the case of `CCC(=O)C(CC(C)N(C)C)(c1ccccc1)c1ccccc1` (racemic) [methadone, (O)-Methadone hydrochloride], the “block of nicotine-stimulated 86Rb+ efflux” value at rat α3β4 nAChRs (100 μM nicotine plus 200 μM methadone) was “completely blocked”. Further, at rat α3β4 nAChRs, the half-inhibitory concentration (IC50) (usually the concentration that inhibits the measured activity by half) is around 2000 nM and the “type of receptor blockade” value is given as “noncompetitive mechanism”. Besides, the “increase of 86Rb+ efflux (agonist effect)” value at rat α3β4 nAChRs (methadone alone at concentrations up to 1 mM) is recorded as “did not increase”. The “competition for [3H]EB binding sites (in words)” value in series [1] was “does not compete effectively”. In addition, in series [2] (patients taking methadone chronically), the steady-state plasma concentration entry is “exceed 1 μM”. Moreover, the “plasma concentration following a single dose” value in series [2] (single dose of methadone) is reported as “approximately 0.25 μM”.

With `CCC1=N[C@H](C)CC1(c1ccccc1)c1ccccc1` [(+)-EMDP, R-(+)-2-ethyl-5-methyl-3,3-diphenyl-1-pyrroline hydrochloride], the midpoint of inhibition on rat α3β4 nAChRs, the IC50, lay at 5800 ± 1000 nM.

As to `CCC(=O)C(C[C@H](C)N(C)C)(c1ccccc1)c1ccccc1.Cl` [(+)-Methadone, S-(+)-methadone hydrochloride], the IC50 against rat α3β4 nAChRs is 2500 ± 200 nM. The “block of glutamate stimulated catecholamine release” value in series [3] is “partial block”.

On rat α3β4 nAChRs, `CCC1=[N+](C)[C@@H](C)CC1(c1ccccc1)c1ccccc1` [(−)-EDDP, S-(−)-2-ethyl-1,5-dimethyl-3,3-diphenylpyrrolinium perchlorate] gave an IC50 of 400 ± 100 nM.

Take `CCC1=N[C@@H](C)CC1(c1ccccc1)c1ccccc1` [(−)-EMDP, S-(−)-2-ethyl-5-methyl-3,3-diphenyl-1-pyrroline hydrochloride]: inhibition against rat α3β4 nAChRs was half-maximal at 6300 ± 700 nM (IC50).

Turning to `CCC(=O)C(C[C@@H](C)N(C)C)(c1ccccc1)c1ccccc1` [(−)-Methadone, R-(−)-methadone hydrochloride], the IC50 at rat α3β4 nAChRs (hydrochloride) was 1900 nM and 2000 nM.

For the compound `COc1ccc2c(c1)[C@]13CCCC[C@@H]1[C@H](C2)N(C)CC3` [Dextromethorphan], the IC50 at rat α3β4 nAChRs was 8900 ± 1100 nM. The “self-administration of morphine, methamphetamine, and nicotine” value in series [4] is listed as “decrease”.

`CN1CC[C@@]23CCCC[C@@H]2[C@@H]1Cc1ccc(O)cc13` [Dextrorphan] gave an IC50 against rat α3β4 nAChRs of 29600 ± 5700 nM.

Turning to `C/C=C1/N(C)C(C)CC1(c1ccccc1)c1ccccc1` (stereo not shown) [EDDP], at rat α3β4 nAChRs (setting [5]), the “potency relative to mecamylamine” value is “twice as potent” and the “potency relative to methadone” value was “about 5 times more potent”. Moreover, the half-maximal inhibitory concentration (IC50) on rat α3β4 nAChRs is around 400 nM. In addition, in the series on Swiss-Webster mice, the tail withdrawal latency result is “increased”. Further, the peak plasma concentration in series [2] (following administration of methadone) is around 0.2 µM.

Take `CC[C@H](OC(C)=O)C(C[C@H](C)N(C)C)(c1ccccc1)c1ccccc1.Cl` [LAAM, (−)-α-acetylmethadol hydrochloride]: at rat α3β4 nAChRs, the midpoint of inhibition, the IC50, lay at 2500 ± 400 nM and the “type of receptor blockade” value was “noncompetitive blockers”.

Take `C[C@]12N[C@H](Cc3ccccc31)c1ccccc12` [MK-801]: the 50% inhibitory concentration (IC50) against rat α3β4 nAChRs stood at 26600 ± 9600 nM. Moreover, the “block of glutamate stimulated catecholamine release” value in series [3] is given as “partial block”.

`CCC(=O)O[C@](Cc1ccccc1)(c1ccccc1)[C@H](C)CNC` [Norpropoxyphene, (+)-α-N-norpropoxyphene maleate] yielded an IC50 against rat α3β4 nAChRs of 1800 ± 100 nM.

Regarding `CCC(=O)O[C@](Cc1ccccc1)(c1ccccc1)[C@H](C)CN(C)C` [Propoxyphene, (+)-α-propoxyphene hydrochloride], the IC50 against rat α3β4 nAChRs came to 2700 ± 400 nM.

On to `CN1CCCC1c1cccnc1` (stereo not shown) [nicotine], for which the “stimulation of 86Rb+ efflux over basal levels” value on rat α3β4 nAChRs was “approximately 10 fold”.

Take “R-(+)-2-ethyl-1,5-dimethyl-3,3-diphenylpyrrolinium perchlorate [(+)-EDDP]”: at rat α3β4 nAChRs, the midpoint of inhibition, the IC50, lay at 400 ± 200 nM and the “type of receptor blockade” value is given as “noncompetitive blockers”. The “effect on glutamate stimulated catecholamine release” value in series [3] (until 100 μM) is given as “no effect”.
